What all share (assay type): cell-based, human
The subject of one assay is NP-CD8 T cell clone. As to conditions: EBV-B cells pulsed with synthetic peptide, 1 to 10 μg/mL for 10-mer, 50 μg/mL for longer peptides, 3 hours.
Assay [1] deals with M1^58-66-specific T cells (M1-CD8). The note with it: EBV-B cells pulsed with peptide; negative specificity control.
The subject of a further assay is M1-CD4 T cell clone. Put plainly: IFN-γ secretion (ELISA) by M1-CD4 T cell clone co-cultured with peptide-pulsed EBV-B cells. The note with it: EBV-B cells pulsed with synthetic peptide; HLA-DR-restricted. On the procedure: Antigen-specific bulk T cells from peripheral blood mononuclear cells stimulated with autologous CD4O-B cells electroporated with M1 or NP DNA plasmids were cloned by limiting dilution and cultured as previously described.^8
Synthetic peptides were added to EBV-B cells at a final concentration of 1 to 10 μg/mL for MHC class 110-mer peptides (50 μg/mL for longer peptides) (Table 2) for 3 hours at 37° C. 5% CO2, and then washed once to remove unbound peptides. T-cell clones were washed and cultured for 4 hours in Iscove's complete medium supplemented with 120 IU/ml of interleukin-2 (IL-2). T cell clones' reactivity to MHC-restricted epitopes was tested on the basis of interferon-γ cytokine secretion as described previously.^7
(In general: An ELISA detects its analyte on a solid surface through an enzyme-linked reagent.)

The values below come from US20130085260A1, “METHOD FOR THE IDENTIFICATION OF T CELL EPITOPES” (CENTRE H[…] L'UNIVERSITE DE MONTREAL, priority 2010, published 2013).

In the case of AFDERRNKYL [Peptide 2], the “recognition by NP-CD8 T cell clone (IFN-γ production)” value with NP-CD8 T cell clone was “more weakly but nevertheless specifically recognized”.
On to IMDQVPFSV [gp100^209-218 peptide], for which, in assay [1], the “recognition by M1^58-66-specific T cells (IFN-γ production)” value is “did not recognize”.
Regarding LSAFDERRNKYLEEHPSAG [Peptide 1-6], the “recognition by NP-CD8 T cell clone (IFN-γ production)” value in the assay on NP-CD8 T cell clone was “well recognized”.
Take NGNGDPNNMDKAVKL [Peptide b]: in the assay with M1-CD4 T cell clone, the “recognition by M1-CD4 T cell clone (IFN-γ production)” value is reported as “weakly recognized”.
The same measure, in the same setting: the result for YRKLKREITF reads “specifically recognized”.
